BindingDB's records for patent US10513534 (IDENIX PHARMACEUTICALS LLC; CENTRE NATIONAL DE LA RECHERCHE …, 2019)
pIC50: −log10 of the molar value.

Target: T1, Genome polyprotein (Hepatitis C virus genotype 1b (isolate Japanese), UniProt P26662)
Experiment: HCV Polymerase Enzyme Assay
Source text: Test compounds in the form of nucleoside triphosphates were examined for inhibitory activity against purified HCV polymerase in a standard assay. Bacterial expression constructs encoding the approximately 65 kDa HCV genotype 1b NS5B protein were used to generate recombinant HCV polymerases (with a deletion of the 21 carboxy terminal amino acids). Both the wild-type genotype 1b protein and protein containing the S282T mutation were expressed and purified for use in the enzymatic activity assay.The enzymatic activity assay measured the inhibitory effect of increasing concentrations of test compound on the incorporation of α-[33P]-labeled nucleotide into trichloroacetic acid-precipitable material. Recombinant polymerase and synthetic RNA template were combined in reaction buffer containing ribonucleoside triphosphates, α-[33P]-labeled nucleotide and eight concentrations of test compound in three-fold dilutions. Reactions were incubated for two hours at 30° C.Reactions were terminated by the addition of ice-cold trichloroacetic acid and sodium pyrophosphate to promote precipitation of newly-synthesized ribonucleic acid. Precipitable material from the reactions was collected by filtration onto 96-well filter plates, washed extensively with water, and quantified by liquid scintillation.The inhibitory activity of test compounds was determined by fitting results to dose-response curves using XLfit software.

Compound	pIC50
C[C@@]1(Cl)[C@H](O)[C@@H](COP(=O)(O)OP(=O)(O)OP(=O)(O)O)O[C@H]1n1ccc(=O)[nH]c1=O [US10513534, Compound 401]	> 6.60
C[C@@]1(Cl)[C@H](O)[C@@H](COP(=O)(O)OP(=O)(O)OP(=O)(O)O)O[C@H]1n1cnc2c(N)nc(Cl)nc21 [US10513534, Compound 404]	< 5.00
C[C@@]1(Cl)[C@H](O)[C@@H](COP(=O)(O)OP(=O)(O)OP(=O)(O)O)O[C@H]1n1cnc2c(N)ncnc21 [US10513534, Compound 406]	> 6.60
C[C@@]1(Cl)[C@H](O)[C@@H](COP(=O)(O)OP(=O)(O)OP(=O)(O)O)O[C@H]1n1ccc(N)nc1=O [US10513534, Compound 402]	5.26

Target: T1, Genome polyprotein
Experiment: not given

Compound	pIC50
C[C@@]1(Cl)[C@H](O)[C@@H](COP(=O)(O)OP(=O)(O)OP(=O)(O)O)O[C@H]1n1cnc2c(N)nc(Cl)nc21 [US10513534, Compound 404]	< 5.00
C[C@@]1(Cl)[C@H](O)[C@@H](COP(=O)(O)OP(=O)(O)OP(=O)(O)O)O[C@H]1n1ccc2c(N)ncnc21 [US10513534, Compound 403]	> 6.60
C[C@@]1(Cl)[C@H](O)[C@@H](COP(=O)(O)OP(=O)(O)OP(=O)(O)O)O[C@H]1n1cc(F)c2c(N)ncnc21 [US10513534, Compound 407]	> 6.60
C[C@@]1(Cl)[C@H](O)[C@@H](COP(=O)(O)OP(=O)(O)OP(=O)(O)O)O[C@H]1n1cnc2c(=O)[nH]c(N)nc21 [US10513534, Compound 405]	> 6.60
